Laboratory results: patent US20260209193A1, “NOVEL INHIBITORS OF DNA DAMAGE RESPONSES FOR CANCER THERAPY” (The Regents of the University of California, priority 2022, published 2026)

Columns and labels:
Assay type in all cases: cell-based
[1] = tested on: PC3 and SUM149PT-BRCA1mut cells; test: CCK8 cell killing screen of JC099 analogs
Excerpt: Structure optimization represents a critical step towards identifying candidate compounds for preclinical and clinical development and contributes to structure-function analysis. […] Cell killing potency was detected by a CCK8 assay in prostate and breast cancer cells. […]
The cell killing potency was detected by a CCK8 assay in prostate and breast cancer cells.

ATR = molecular target: T1, ATR (Homo sapiens, UniProt Q13535); test: ATR-mediated signaling: phosphorylation of Rad17 Ser 645 and CHK1 Ser 345 in cells; conditions: for ATR inhibition potency relative to JC099 (OLA- or UV-induced phosphorylation of Rad17 and CHK1): compared to JC099
T1 construct: endogenous in cells; host or cells: PC3, C4-2B/MR, SUM149PT-BRCA1rev, UWB1.289+BRCA1, MDA-MB-231
Experimental: PARP inhibitor-resistant cells are increasingly dependent on ATR for survival, and ATR inhibition disrupts restored HR and fork protection pathways in PARP inhibitor resistant BRCA-deficient cancer cells. For ATR kinase in vitro assays, ATR was immunoprecipitated with 3 μg of anti-ATR antibody (Bethyl Laboratories, A300-137A) from 1 mg of cell lysate. […] The IC50 was determined by the enzyme profiling service of Eurofins Cerep (France). […] The phosphorylation of CHK1 at Ser 345 sites was used as a bio-marker of ATR-mediated signaling pathway. The phosphorylation of Rad17 at Ser 645, which is a substrate of ATR, was also examined.
ATR inhibition was assessed in C4-2B/MR cells. Considering ATM is a homologous protein of ATR, we also detected the effect of JC046 analogs on the phosphorylation of KAP1 at Ser 824 and CHK2 at Thr 68 sites, which were used as markers of ATM signaling pathway.

PARP1 = molecular target: T2, PARP1 (Homo sapiens, UniProt P09874); test: PARP1 trapping, chromatin fractionation (chromatin-bound fraction)
T2 construct: endogenous in cells; host or cells: PC3
Outline: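 PARP1 trapping was measured as PARP1 in the chromatin-bound fraction across six lines: SUM149PT-BRCA1mut/BRCA1rev (breast), UWB1.289 BRCA1-null and BRCA1-restored (ovarian), HR-deficient C4-2B/MR (Rad51 mutant) and HR-proficient PC3 (prostate).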

T1 sequence (Q13535 whole entry): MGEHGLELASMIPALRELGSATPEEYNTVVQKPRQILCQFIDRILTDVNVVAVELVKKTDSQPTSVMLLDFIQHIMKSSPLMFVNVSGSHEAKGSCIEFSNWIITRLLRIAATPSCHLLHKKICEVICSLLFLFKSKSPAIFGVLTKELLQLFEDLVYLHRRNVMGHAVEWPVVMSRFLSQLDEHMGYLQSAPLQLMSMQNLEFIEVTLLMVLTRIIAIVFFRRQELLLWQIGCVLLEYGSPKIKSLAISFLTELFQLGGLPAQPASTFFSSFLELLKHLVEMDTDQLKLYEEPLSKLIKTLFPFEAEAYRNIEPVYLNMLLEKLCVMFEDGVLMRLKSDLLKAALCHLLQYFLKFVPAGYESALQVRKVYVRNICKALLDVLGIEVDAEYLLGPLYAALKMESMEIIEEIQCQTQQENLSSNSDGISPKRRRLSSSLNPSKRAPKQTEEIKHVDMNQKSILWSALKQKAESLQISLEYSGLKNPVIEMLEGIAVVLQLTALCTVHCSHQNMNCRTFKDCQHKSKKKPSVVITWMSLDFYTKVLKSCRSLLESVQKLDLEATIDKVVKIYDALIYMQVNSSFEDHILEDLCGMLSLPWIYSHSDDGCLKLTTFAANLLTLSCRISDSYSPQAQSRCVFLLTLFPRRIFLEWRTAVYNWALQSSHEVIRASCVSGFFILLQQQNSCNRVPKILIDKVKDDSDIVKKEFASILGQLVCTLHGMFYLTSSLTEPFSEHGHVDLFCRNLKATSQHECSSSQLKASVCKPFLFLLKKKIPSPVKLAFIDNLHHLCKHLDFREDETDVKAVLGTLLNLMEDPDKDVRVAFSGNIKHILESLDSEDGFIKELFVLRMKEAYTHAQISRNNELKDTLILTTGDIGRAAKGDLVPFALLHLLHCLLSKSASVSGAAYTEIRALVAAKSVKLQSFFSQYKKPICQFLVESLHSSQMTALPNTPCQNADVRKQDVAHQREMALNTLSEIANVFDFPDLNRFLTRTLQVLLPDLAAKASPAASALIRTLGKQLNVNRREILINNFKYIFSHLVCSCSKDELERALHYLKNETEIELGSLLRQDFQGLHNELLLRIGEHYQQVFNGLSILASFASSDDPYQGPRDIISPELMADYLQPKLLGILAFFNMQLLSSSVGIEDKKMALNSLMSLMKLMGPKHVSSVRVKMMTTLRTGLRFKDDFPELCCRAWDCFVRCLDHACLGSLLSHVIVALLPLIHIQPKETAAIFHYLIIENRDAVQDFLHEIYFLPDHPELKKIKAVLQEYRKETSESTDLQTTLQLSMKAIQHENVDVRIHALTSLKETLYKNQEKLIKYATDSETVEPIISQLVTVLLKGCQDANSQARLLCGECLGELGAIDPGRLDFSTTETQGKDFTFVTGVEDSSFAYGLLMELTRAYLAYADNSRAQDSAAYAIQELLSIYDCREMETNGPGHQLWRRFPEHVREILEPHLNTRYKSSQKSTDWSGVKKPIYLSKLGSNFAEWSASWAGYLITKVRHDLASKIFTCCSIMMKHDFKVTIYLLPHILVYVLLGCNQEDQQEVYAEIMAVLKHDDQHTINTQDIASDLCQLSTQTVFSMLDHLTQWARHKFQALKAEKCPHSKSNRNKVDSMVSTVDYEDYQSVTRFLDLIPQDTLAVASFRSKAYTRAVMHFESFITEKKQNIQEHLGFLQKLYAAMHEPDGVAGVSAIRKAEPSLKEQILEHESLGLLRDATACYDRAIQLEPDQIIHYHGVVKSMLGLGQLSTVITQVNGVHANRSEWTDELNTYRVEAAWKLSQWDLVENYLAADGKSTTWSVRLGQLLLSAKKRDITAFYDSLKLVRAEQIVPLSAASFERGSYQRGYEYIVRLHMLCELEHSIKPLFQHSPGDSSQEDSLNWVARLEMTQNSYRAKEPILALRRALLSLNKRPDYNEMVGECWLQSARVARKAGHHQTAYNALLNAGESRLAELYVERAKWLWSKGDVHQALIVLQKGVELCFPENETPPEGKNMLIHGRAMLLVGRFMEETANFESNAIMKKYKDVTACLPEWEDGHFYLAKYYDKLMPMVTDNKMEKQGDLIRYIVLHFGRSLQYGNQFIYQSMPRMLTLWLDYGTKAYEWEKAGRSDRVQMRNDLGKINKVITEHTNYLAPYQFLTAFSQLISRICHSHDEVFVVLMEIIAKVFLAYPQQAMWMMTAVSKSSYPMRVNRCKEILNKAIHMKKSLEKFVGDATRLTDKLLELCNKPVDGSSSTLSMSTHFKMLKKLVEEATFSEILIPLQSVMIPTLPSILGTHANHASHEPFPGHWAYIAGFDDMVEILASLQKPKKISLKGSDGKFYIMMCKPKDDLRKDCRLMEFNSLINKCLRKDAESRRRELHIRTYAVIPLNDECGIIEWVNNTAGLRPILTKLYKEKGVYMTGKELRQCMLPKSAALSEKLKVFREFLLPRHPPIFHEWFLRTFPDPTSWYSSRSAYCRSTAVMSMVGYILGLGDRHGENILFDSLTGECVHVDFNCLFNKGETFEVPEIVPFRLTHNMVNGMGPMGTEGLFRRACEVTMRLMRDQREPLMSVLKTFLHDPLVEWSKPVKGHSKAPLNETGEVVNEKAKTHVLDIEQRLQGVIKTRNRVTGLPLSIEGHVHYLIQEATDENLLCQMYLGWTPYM
T1 sequence (Q8WXE1 whole entry partner): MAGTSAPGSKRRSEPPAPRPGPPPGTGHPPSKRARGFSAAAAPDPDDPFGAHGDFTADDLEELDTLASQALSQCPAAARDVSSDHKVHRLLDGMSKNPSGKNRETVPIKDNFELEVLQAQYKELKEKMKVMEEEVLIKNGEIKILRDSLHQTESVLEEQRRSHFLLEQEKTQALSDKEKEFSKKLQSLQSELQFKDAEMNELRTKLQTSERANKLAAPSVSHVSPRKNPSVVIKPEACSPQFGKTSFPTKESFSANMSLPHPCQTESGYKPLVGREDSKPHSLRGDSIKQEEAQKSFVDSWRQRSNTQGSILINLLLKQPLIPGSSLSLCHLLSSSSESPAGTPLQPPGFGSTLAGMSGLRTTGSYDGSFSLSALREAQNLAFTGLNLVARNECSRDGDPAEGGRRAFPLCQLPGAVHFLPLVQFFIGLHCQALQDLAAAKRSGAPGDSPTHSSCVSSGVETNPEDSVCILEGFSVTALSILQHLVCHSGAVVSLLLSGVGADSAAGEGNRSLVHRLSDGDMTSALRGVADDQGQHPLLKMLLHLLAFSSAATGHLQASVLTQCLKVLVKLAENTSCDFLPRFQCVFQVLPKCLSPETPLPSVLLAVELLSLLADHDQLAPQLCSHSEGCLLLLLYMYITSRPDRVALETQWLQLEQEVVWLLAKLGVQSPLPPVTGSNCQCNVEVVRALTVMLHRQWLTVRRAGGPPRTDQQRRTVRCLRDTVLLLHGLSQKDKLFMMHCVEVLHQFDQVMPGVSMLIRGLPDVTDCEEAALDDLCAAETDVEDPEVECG
T2 sequence (P09874 whole entry, species assumed): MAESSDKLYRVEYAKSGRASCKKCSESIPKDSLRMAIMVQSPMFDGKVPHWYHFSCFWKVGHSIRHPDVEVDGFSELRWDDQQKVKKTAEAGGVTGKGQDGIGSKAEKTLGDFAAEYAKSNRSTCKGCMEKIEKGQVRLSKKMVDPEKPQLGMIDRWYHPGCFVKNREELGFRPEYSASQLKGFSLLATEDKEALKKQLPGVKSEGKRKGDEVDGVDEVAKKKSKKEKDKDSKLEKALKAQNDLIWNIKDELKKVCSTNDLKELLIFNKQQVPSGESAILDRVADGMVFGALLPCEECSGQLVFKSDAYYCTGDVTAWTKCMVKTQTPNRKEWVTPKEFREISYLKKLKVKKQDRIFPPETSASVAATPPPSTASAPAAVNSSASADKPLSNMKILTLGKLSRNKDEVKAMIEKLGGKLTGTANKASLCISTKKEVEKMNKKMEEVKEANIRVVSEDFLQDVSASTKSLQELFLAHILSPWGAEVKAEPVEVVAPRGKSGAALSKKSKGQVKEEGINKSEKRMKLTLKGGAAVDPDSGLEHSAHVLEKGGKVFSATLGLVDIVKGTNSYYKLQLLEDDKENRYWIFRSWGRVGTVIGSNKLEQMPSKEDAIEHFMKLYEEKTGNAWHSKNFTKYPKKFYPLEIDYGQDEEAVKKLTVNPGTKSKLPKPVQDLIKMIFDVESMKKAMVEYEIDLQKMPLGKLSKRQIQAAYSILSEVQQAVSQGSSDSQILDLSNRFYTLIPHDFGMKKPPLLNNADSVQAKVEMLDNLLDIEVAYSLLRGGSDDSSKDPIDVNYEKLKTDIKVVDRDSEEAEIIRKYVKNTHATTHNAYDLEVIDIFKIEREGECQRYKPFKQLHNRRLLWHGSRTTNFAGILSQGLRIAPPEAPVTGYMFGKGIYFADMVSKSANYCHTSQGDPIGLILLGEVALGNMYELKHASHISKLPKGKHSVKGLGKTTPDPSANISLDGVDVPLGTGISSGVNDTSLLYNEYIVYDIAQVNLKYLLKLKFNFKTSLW

CN1CCC[C@H]1CNc1ncc(C(=O)NC2C/C(=C\c3ccc(F)c(F)c3)C(=O)/C(=C/c3ccc(F)c(F)c3)C2)cn1 (stereo partly drawn) [JCS161, N-(3,5-Bis((E)-3,4-difluorobenzylidene)-4-oxocyclohexyl)-2-((((S)-1-methylpyrrolidin-2-yl)methyl)-amino)pyrimidine-5-carboxamide]
cell killing potency relative to JC099 [1]: higher cell killing potency than JC099

CCN(CC)CCOc1ccc(C(=O)NC2C/C(=C\c3ccc(F)c(F)c3)C(=O)/C(=C/c3ccc(F)c(F)c3)C2)cc1OC (stereo not drawn) [JCS111, N-(3,5-Bis((E)-3,4-difluorobenzylidene)-4-oxocyclohexyl)-4-(2-(diethylamino)ethoxy)-3-methoxy-benzamide]
cell killing potency relative to JC099 [1]: moderate potency of cell killing, whereas less than JC099
ATR inhibition potency relative to JC099 (OLA- or UV-induced phosphorylation of Rad17 and CHK1) (ATR): their potencies were close to JC099

O=C(CN1CCCC1)Nc1ccc(C(=O)NC2C/C(=C\c3ccc(F)c(F)c3)C(=O)/C(=C/c3ccc(F)c(F)c3)C2)cc1 (stereo not drawn) [JCS046, N-(3,5-bis((E)-3,4-difluorobenzylidene)-4-oxocyclohexyl)-4-(2-(pyrrolidin-1-yl)acetamido)benzamide]
cell killing potency relative to JC099 [1]: higher cell killing potency than JC099
PARP1 trapped on DNA lesions (PARP1; 0.3 μM, PC3 cells): trapped

CN1CCN(c2ccc(C(=O)NC3C/C(=C\c4ccc(F)c(F)c4)C(=O)/C(=C/c4ccc(F)c(F)c4)C3)cc2)CC1 (stereo not drawn) [JCS071, N-(3,5-Bis((E)-3,4-difluorobenzylidene)-4-oxocyclohexyl)-4-(4-methylpiperazin-1-yl)benzamide]
cell killing potency relative to JC099 [1]: higher cell killing potency than JC099

N#Cc1cc(NCCN2CCCC2)ccc1C(=O)NC1C/C(=C\c2ccc(F)c(F)c2)C(=O)/C(=C/c2ccc(F)c(F)c2)C1 (stereo not drawn) [JCS091, N-(3,5-Bis((E)-3,4-difluorobenzylidene)-4-oxocyclohexyl)-2-cyano-4-((2-(pyrrolidin-1-yl)ethyl)ami-no)benzamide]
cell killing potency relative to JC099 [1]: higher cell killing potency than JC099
PARP1-trapping potency relative to JC099 (PARP1 in the chromatin-bound fraction) (PARP1; PC3 cells): higher potency in PARP1-trapping

CCCN(CCC)CCOc1ccc(C(=O)NC2C/C(=C\c3ccc(F)c(F)c3)C(=O)/C(=C/c3ccc(F)c(F)c3)C2)cc1 (stereo not drawn) [JCSO11]
cell killing potency relative to JC099 [1]: higher cell killing potency than JC099

CN1CCC[C@H]1CNc1ccc(C(=O)NC2C/C(=C\c3ccc(F)c(F)c3)C(=O)/C(=C/c3ccc(F)c(F)c3)C2)cc1 (stereo partly drawn) [JCS160, N-(3,5-Bis((E)-3,4-difluorobenzylidene)-4-oxocyclohexyl)-4-((((S)-1-methylpyrrolidin-2-yl)methyl)-amino)benzamide]
ATR inhibition potency relative to JC099 (OLA- or UV-induced phosphorylation of Rad17 and CHK1) (ATR): greater ATR inhibition potential
PARP1-trapping potency relative to JC099 (PARP1 in the chromatin-bound fraction) (PARP1; PC3 cells): their potencies were less than JC099

CCCN(CCC)CCOc1ccc(C(=O)NC2C/C(=C\c3cc(Cl)cc(Cl)c3)C(=O)/C(=C/c3cc(Cl)cc(Cl)c3)C2)cc1 (stereo not drawn) [JCS062, N-(3,5-Bis((E)-3,5-dichlorobenzylidene)-4-oxocyclohexyl)-4-(2-(dipropylamino)ethoxy)benzamide]
Olaparib induced phosphorylation of Rad17 at Ser 645 and CHK1 at Ser 345 (ATR; 1 μM and 2 μM, PC3 cells): inhibited
PARP1 trapped on DNA lesions (PARP1; 0.3 μM, PC3 cells): trapped

CCN(CC)C(=O)c1ccc(C2C/C(=C\c3ccc(F)c(F)c3)C(=O)/C(=C/c3ccc(F)c(F)c3)C2)c2[nH]ncc12 (stereo not drawn) [JCS005, 7-(3,5-bis((E)-3,4-difluorobenzylidene)-4-oxocyclohexyl)-N,N-diethyl-1H-indazole-4-carboxamide]
UV induced phosphorylation of CHK1 at Ser 345 (ATR; 1 μM and 2 μM, PC3 and SUM149PT-BRCA1rev cells): inhibited
PARP1 trapped on DNA lesions (PARP1; 0.5 μM and 2 μM, PC3 and C4-2B/MR cells): trapped
